The source of these data is US20220073536A1 (Rigel Pharmaceuticals, Inc., priority 2003, published 2022).

In the first assay the test system is cultured human mast cells (CHMC). The experiment in a line: CHMC low cell density IgE activation: tryptase assay. The format is cell-based. As to conditions: Homo sapiens, Mast cell, low cell density CHMC, IgE activation, tryptase readout, 3 pt; read-out: LD Tryptase, CHMC, IgE, 3 pt. Put shortly: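 CHMC were seeded at 1000–1500 cells/well in MT buffer and incubated 1 hr at 37 °C. They were then stimulated with anti-IgE for 30 min at 37 °C, with unstimulated wells as controls. Released tryptase in the supernatant was measured with a fluorogenic substrate after 30 min at room temperature.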
Take `COc1cccc(Nc2ncc(F)c(Nc3ccc4c(c3)NC(=O)C(C)(C)O4)n2)c1C` [Compound 1062, N4-(2,2-Dimethyl-3-oxo-4H-benz[1,4]oxazin-6-yl)-5-fluoro-N2-(3-methoxy-2-methylphenyl)-2,4-pyrimidinediamine]: the IC50 was less than 10 µM.

The same assay, now with this note: Homo sapiens, Mast cell, low cell density CHMC, IgE activation, tryptase readout, 8 pt; read-out: LD Tryptase, CHMC, IgE, 8 pt.
For `Cc1c(O)cccc1Nc1ncc(F)c(Nc2ccc3c(c2)NC(=O)C(C)(C)O3)n1` [Compound 1060, N4-(2,2-Dimethyl-3-oxo-4H-benz[1,4]oxazin-6-yl)-5-fluoro-N2-(3-hydroxy-2-methylphenyl)-2,4-pyrimidinediamine], the IC50 was less than 10 µM.

The assay is the same for the next values; noted with them: low cell density CHMC, IgE activation, tryptase readout, 3 pt; read-out: LD Tryptase, CHMC, IgE, 3 pt.
In the case of `COc1cccc(Nc2ncc(F)c(Nc3ccc4c(n3)NC(=O)C(C)(C)O4)n2)c1C` [Compound 1065, N4-(2,2-Dimethyl-3-oxo-4H-5-pyrid[1,4]oxazin-6-yl)-5-fluoro-N2-(3-methoxy-2-methylphenyl)-2,4-pyrimidinediamine], the IC50 was less than 10 µM. Consider `COC(=O)COc1cccc(Nc2ncc(F)c(Nc3ccc4c(c3)NC(=O)C(C)(C)O4)n2)c1C` [Compound 1066, N4-(2,2-Dimethyl-3-oxo-4H-benz[1,4]oxazin-6-yl)-5-fluoro-N2-[3-methoxycarbonylmethyleneoxy-2-methylphenyl]-2,4-pyrimidinediamine], for which the IC50 is less than 10 µM.

Regarding `COc1ccc(Nc2ncc(F)c(Nc3ccc4c(n3)NC(=O)[C@H](C)O4)n2)cc1Cl` [Compound 1081, (S)-N2-(3-Chloro-4-methoxyphenyl)-5-fluoro-N4-(2-methyl-3-oxo-2H,4H-5-pyrid[1,4]oxazin-6-yl)-2,4-pyrimidinediamine], the IC50 is less than 10 µM. `COc1cc(Nc2ncc(F)c(Nc3ccc4c(n3)NC(=O)[C@H](C)O4)n2)cc(OC)c1OC` [Compound 1082, (S)-5-Fluoro-N4-(2-methyl-3-oxo-2H,4H-5-pyrid[1,4]oxazin-6-yl)-N2-(3,4,5-trimethoxyphenyl)-2,4-pyrimidinediamine]: the IC50 was less than 10 µM.

Still in this assay, the particulars now being: low cell density CHMC, IgE activation, tryptase readout, 8 pt; read-out: LD Tryptase, CHMC, IgE, 8 pt.
For `CC1(C)Oc2ccc(Nc3nc(Nc4ccc(-c5ncco5)cc4)ncc3F)nc2NC1=O` [Compound 1035, N4-(2,2-Dimethyl-3-oxo-4H-5-pyrid[1,4]oxazin-6-yl)-5-fluoro-N2-[4-(oxazol-2-yl)phenyl]-2,4-pyrimidinediamine], the IC50 was more than 10 µM.

`COc1c(C)cc(Nc2ncc(F)c(Nc3ccc4c(n3)NC(=O)CO4)n2)cc1C` [Compound 1059, N2-(3,5-Dimethyl-4-methoxyphenyl)-5-fluoro-N4-(3-oxo-2H,4H-5-pyrid[1,4]oxazin-6-yl)-2,4-pyrimidinediamine]: the IC50 was less than 10 µM. The same measure, in the same setting: the same measure for `COc1cccc(Nc2ncc(F)c(Nc3ccc4c(n3)NC(=O)CO4)n2)c1C` [Compound 1061, 5-Fluoro-N2-(3-methoxy-2-methylphenyl)-N4-(3-oxo-2H,4H-5-pyrid[1,4]oxazin-6-yl)-2,4-pyrimidinediamine]: less than 10 µM. Consider `Cc1c(O)cccc1Nc1ncc(F)c(Nc2ccc3c(n2)NC(=O)CO3)n1` [Compound 1063, 5-Fluoro-N2-(3-hydroxy-2-methylphenyl)-N4-(3-oxo-2H,4H-5-pyrid[1,4]oxazin-6-yl)-2,4-pyrimidinediamine], for which the IC50 is less than 10 µM. Consider `Cc1c(O)cccc1Nc1ncc(F)c(Nc2ccc3c(n2)NC(=O)C(C)(C)O3)n1` [Compound 1064, N4-(2,2-Dimethyl-3-oxo-4H-5-pyrid[1,4]oxazin-6-yl)-5-fluoro-N2-(3-hydroxy-2-methylphenyl)-2,4-pyrimidinediamine], for which the IC50 is less than 10 µM.

For `CNC(=O)COc1cccc(Nc2ncc(F)c(Nc3ccc4c(c3)NC(=O)C(C)(C)O4)n2)c1C` [Compound 1067, N4-(2,2-Dimethyl-3-oxo-4H-benz[1,4]oxazin-6-yl)-5-fluoro-N2-[2-methyl-3-(N-methylamino)carbonylmethyleneoxyphenyl]-2,4-pyrimidinediamine], the IC50 is less than 10 µM.

Take `CNC(=O)COc1cccc(Nc2ncc(F)c(Nc3ccc4c(n3)NC(=O)CO4)n2)c1C` [Compound 1068, 5-Fluoro-N2-[2-methyl-3-(N-methylamino)carbonylmethyleneoxyphenyl]-N4-(3-oxo-2H,4H-5-pyrid[1,4]oxazin-6-yl)-2,4-pyrimidinediamine]: the IC50 is less than 10 µM. Still for that read-out and setting: then `Cc1cc(Nc2ncc(F)c(Nc3ccc4c(n3)NC(=O)CO4)n2)cc(C)c1O` [Compound 1069, N2-(3,5-Dimethyl-4-hydroxyphenyl)-5-fluoro-N4-(3-oxo-2H,4H-5-pyrid[1,4]oxazin-6-yl)-2,4-pyrimidinediamine], with less than 10 µM; and `CCOC(=O)N1CCN(c2cccc(Nc3ncc(F)c(Nc4ccc5c(n4)NC(=O)CO5)n3)c2)CC1` [Compound 1070, N2-[3-(4-Ethoxycarbonylpiperazino)phenyl]-5-fluoro-N4-(3-oxo-2H,4H-5-pyrid[1,4]oxazin-6-yl)-2,4-pyrimidinediamine], with less than 10 µM. With `CC(=O)N1CCN(c2cccc(Nc3ncc(F)c(Nc4ccc5c(n4)NC(=O)CO5)n3)c2)CC1` [Compound 1071, N2-[3-(4-Acetylpiperazino)phenyl]-5-fluoro-N4-(3-oxo-2H,4H-5-pyrid[1,4]oxazin-6-yl)-2,4-pyrimidinediamine], the IC50 is less than 10 µM.

With `CCOC(=O)N1CCN(c2ccc(Nc3ncc(F)c(Nc4ccc5c(n4)NC(=O)CO5)n3)cc2)CC1` [Compound 1072, N2-[4-(4-Ethoxycarbonylpiperazino)phenyl]-5-fluoro-N4-(3-oxo-2H,4H-5-pyrid[1,4]oxazin-6-yl)-2,4-pyrimidinediamine], the IC50 was less than 10 µM. In the case of `O=C1COc2ccc(Nc3nc(Nc4cccc(N5CCOCC5)c4)ncc3F)nc2N1` [Compound 1073, 5-Fluoro-N2-(3-morpholinophenyl)-N4-(3-oxo-2H,4H-5-pyrid[1,4]oxazin-6-yl)-2,4-pyrimidinediamine], the IC50 was less than 10 µM. In the case of `CN1CCN(c2cccc(Nc3ncc(F)c(Nc4ccc5c(n4)NC(=O)CO5)n3)c2)CC1` [Compound 1074, 5-Fluoro-N2-[3-(4-methylpiperazino)phenyl]-N4-(3-oxo-2H,4H-5-pyrid[1,4]oxazin-6-yl)-2,4-pyrimidinediamine], the IC50 is less than 10 µM. Take `CCOC(=O)N1CCN(c2cccc(Nc3ncc(F)c(Nc4ccc5c(n4)NC(=O)C(C)(C)O5)n3)c2)CC1` [Compound 1075, N4-(2,2-Dimethyl-3-oxo-4H-5-pyrid[1,4]oxazin-6-yl)-N2-[3-(4-ethoxycarbonylpiperazino)phenyl]-5-fluoro-2,4-pyrimidinediamine]: the IC50 was less than 10 µM. `CC(=O)N1CCN(c2cccc(Nc3ncc(F)c(Nc4ccc5c(n4)NC(=O)C(C)(C)O5)n3)c2)CC1` [Compound 1076, N2-[3-(4-Acetylpiperazino)phenyl]-N4-(2,2-dimethyl-3-oxo-4H-5-pyrid[1,4]oxazin-6-yl)-5-fluoro-2,4-pyrimidinediamine]: the IC50 is less than 10 µM. Take `CCOC(=O)N1CCN(c2ccc(Nc3ncc(F)c(Nc4ccc5c(n4)NC(=O)C(C)(C)O5)n3)cc2)CC1` [Compound 1077, N4-(2,2-Dimethyl-3-oxo-4H-5-pyrid [1,4]oxazin-6-yl)-N2-[4-(4-ethoxycarbonylpiperazino)phenyl]-5-fluoro-2,4-pyrimidinediamine]: the IC50 was less than 10 µM. As to `CC1(C)Oc2ccc(Nc3nc(Nc4cccc(N5CCOCC5)c4)ncc3F)nc2NC1=O` [Compound 1078, N4-(2,2-Dimethyl-3-oxo-4H-5-pyrid[1,4]oxazin-6-yl)-5-fluoro-N2-(3-morpholinophenyl)-2,4-pyrimidinediamine], the IC50 was less than 10 µM. In the case of `CNC(=O)COc1cccc(Nc2ncc(F)c(Nc3ccc4c(n3)NC(=O)C(C)(C)O4)n2)c1C` [Compound 1079, N4-(2,2-Dimethyl-3-oxo-4H-5-pyrid [1,4]oxazin-6-yl)-5-fluoro-N2-[2-methyl-3-(N-methylamino)carbonylmethyleneoxyphenyl]-2,4-pyrimidinediamine], the IC50 is less than 10 µM. Regarding `CN1CCN(c2cccc(Nc3ncc(F)c(Nc4ccc5c(n4)NC(=O)C(C)(C)O5)n3)c2)CC1` [Compound 1080, N4-(2,2-Dimethyl-3-oxo-4H-5-pyrid [1,4]oxazin-6-yl)-5-fluoro-N2-[3-(4-methylpiperazino)phenyl]-2,4-pyrimidinediamine], the IC50 was less than 10 µM.

On to `COc1ccc(Nc2ncc(F)c(Nc3ccc4c(n3)NC(=O)[C@H](C)O4)n2)cc1Cl` [Compound 1081, (S)-N2-(3-Chloro-4-methoxyphenyl)-5-fluoro-N4-(2-methyl-3-oxo-2H,4H-5-pyrid[1,4]oxazin-6-yl)-2,4-pyrimidinediamine], for which the IC50 was less than 10 µM. On to `COc1cc(Nc2ncc(F)c(Nc3ccc4c(n3)NC(=O)[C@H](C)O4)n2)cc(OC)c1OC` [Compound 1082, (S)-5-Fluoro-N4-(2-methyl-3-oxo-2H,4H-5-pyrid[1,4]oxazin-6-yl)-N2-(3,4,5-trimethoxyphenyl)-2,4-pyrimidinediamine], for which the IC50 was less than 10 µM.

Still in this assay, the particulars now being: low cell density, IgE activation, 3 pt; read-out: LD Tryptase, CHMC, IgE, 3 pt.
Regarding `CC(C)c1cccc(Nc2ncc(F)c(Nc3ccc4c(n3)NC(=O)C(C)(C)O4)n2)c1` [Compound 1003, N4-(2,2-Dimethyl-3-oxo-4H-5-pyrid[1,4]oxazin-6-yl)-5-fluoro-N2-(3-isopropylphenyl)-2,4-pyrimidinediamine], the IC50 is less than 10 µM.

Staying with this assay, now noted: low cell density, IgE activation, 8 pt; read-out: LD Tryptase, CHMC, IgE, 8 pt.
For the compound `CNC(=O)COc1cccc(Nc2ncc(F)c(Nc3ccc4c(c3)NCC(C)(C)O4)n2)c1` [Compound 1000, N4-(3,4-Dihydro-2,2-dimethyl-4H-benz[1,4]oxazin-6-yl)-5-fluoro-N2-[3-(N-methylamino)carbonylmethyleneoxyphenyl]-2,4-pyrimidinediamine], the IC50 was less than 10 µM. Regarding `COc1c(C)cc(Nc2ncc(F)c(Nc3ccc4c(c3)NCC(C)(C)O4)n2)cc1Cl` [Compound 1001, N2-(3-Chloro-4-methoxy-5-methylphenyl)-N4-(3,4-dihydro-2,2-dimethyl-4H-benz[1,4]oxazin-6-yl)-5-fluoro-2,4-pyrimidinediamine], the IC50 was less than 10 µM. In the case of `COc1cc(Nc2ncc(F)c(Nc3ccc4c(c3)NCC(C)(C)O4)n2)cc(OC)c1` [Compound 1002, N4-(3,4-Dihydro-2,2-dimethyl-4H-benz[1,4]oxazin-6-yl)-N2-(3,5-dimethoxyphenyl)-5-fluoro-2,4-pyrimidinediamine], the IC50 is less than 10 µM. `CC(C)c1cccc(Nc2ncc(F)c(Nc3ccc4c(n3)NC(=O)C(C)(C)O4)n2)c1` [Compound 1003, N4-(2,2-Dimethyl-3-oxo-4H-5-pyrid[1,4]oxazin-6-yl)-5-fluoro-N2-(3-isopropylphenyl)-2,4-pyrimidinediamine]: the IC50 is less than 10 µM.
